From patent US20100034901A1, “ANIMAL FEED COMPOSITIONS” (priority 2006, published 2010)
Entries after “also recorded” stand apart in the source; their conditions may differ.

Experiments:
[1] = system: sows, piglets and pigs on farms; assay type: in vivo; details: sows on 1 mg/kg body weight boron as boric acid; usual mortality for this farm about 5 to 7%
Experimental: Boron was added to the diet of sows at 1 mg/kg body weight as boric acid. […] Among a group of 95 piglets the birth to weaning mortality was 2 piglets. The usual mortality for this farm was about 5 to 7%. These piglets remained on boron 50 ppm plus ascorbate 125 ppm. One pig was euthanized and examined at a weight of about 85 pounds. […] All bones of the appendicular skeleton were sectioned on the band saw.
An Iowa farm treated a group of about 100 pigs with 50 ppm boron as boric acid. None of these pigs developed any signs of lameness or unsoundness. The farmer reported that these pigs are the most sound he has raised. The estimated previous lameness/unsoundness rate was about 25 to 30%, and zero in the test group. […] The absence of lameness and hock swelling was observed. Two pigs with hock swelling were euthanised from among the younger and older pigs not treated with boric acid. […] An older pig of about 250 pounds body weight with severe lameness in the right hock was euthanised.

[2] = system: pig cartilage; assay: Glycosaminoglycan study: sGAG in articular cartilage plugs of hock and elbow joints; assay type: in vivo; details: pigs fed 50 ppm boron
Experimental: Hock joints and elbow joints were obtained at necropsy from pigs in two feeding groups: one group having been fed a commercial ration supplemented with 50 mg B/kg feed and the other being fed only the standard commercial pig ration.
Cartilage plugs were harvested from the articular surfaces of 40 hock and elbow joints using a #5 (10.5 mm) cork borer. The samples were papain digested and analyzed for concentration of sulfated glycosaminoglycan (sGAG) using a spectrophotometric microplate analysis procedure adapted from Farndale, et al (1986), using a chondrotin sulfate standard. This method measures total sulfated glycosaminoglycan, most of which is chondrotin sulfate and keratan sulfate components of aggrecan. Aggrecan is the large aggregating proteoglycan of cartilage responsible for creating and maintaining the osmotic pressure of cartilage. Quanititation of sGAG concentration thus provides a measure of the weight-bearing and anti-friction properties of cartilage and is a measure of cartilage quality and durability.

[3] = system: sows and their litters; assay: Sow and litter trial in a commercial swine operation during a PRRSV outbreak; assay type: in vivo; details: sows given 1 mg boron per pound BW per day
Experimental: To test the effect of boron on sows and their litters, a trial was established in a large commercial swine operation during an outbreak of porcine viral reproductive and respiratory disease (PRRSV). Boron was administered orally to a group of 51 sows individually housed in crates at the rate of 1 mg boron per pound BW per day beginning 1 week prior to farrowing and continuing until the piglets were weaned at 14 days of age. […] Boron treatment was supplied as a single daily dosing and was discontinued at weaning. All sows were fed a standard commercial sow diet.

[4] = system: Duroc and Yorkshire pigs; assay: Boron supplementation and OC-associated lameness in swine (Example 1); assay type: in vivo, pig
Experimental: The basal diet consisted of commercial corn-soy diet containing 10 ppm boron.
Test diet group B was fed a basal diet plus 25 mg/kg boron as sodium borate decahydrate (borax). Test diet group A was fed a basal diet plus 25 mg/kg boron as sodium borate decahydrate (borax) and 250 mg/kg ascorbic acid.
Pigs were weighed at the beginning of the study, 4 weeks later and every 3 weeks until the end of the study. Animals were scored for soundness on a 5-point scale at each weighing. (Five-point scale: 1=no soundness defects; 2=minor soundness issues but still sound enough for retention as breeding animal; 3=not sound enough for retention for breeding but still marketable; 4=unsound, likely to be rejected at slaughter; 5=severely lame, requiring euthanasia for humane reasons.) Grading was done by the caretaker and the investigator at all weighing times. An experienced independent treatment-blind rater also evaluated the soundness of each animal and the ratings he provided were compared with the ratings of the caretaker and investigator by use of Cohen's Kappa test.
The animals were housed in a modern curtain sided barn with deep straw bedding, with ad libitum access to feed and water. Waterers and feeders were on a concrete pad but the remainder of the flooring was deep straw over a ground limestone and sand base. Floor space allowances exceeded the recommendations of the Guide for the Care and Use of Agricultural Animals in Agricultural Research and Teaching, First Revised Edition, 1999. Federation of Animal Science Societies. Savoy, Ill.
The basal diet (no boron supplemented) was analysed and found to contain boron at the rate of 10 ppm which is typical for a corn-soybean meal based diet.
At the end of the study the pigs were transported to a laboratory where they were euthanized and necropsied. Six pigs in each of group B and group A were put on the control diet for 7 days at the end of the study.
At necropsy, samples of liver, heart, kidney, fat, skeletal muscle, proximal tibia, blood, and the rostral snout were retained and frozen at −40° C. prior to chemical analysis. All joints of the axial skeleton were evaluated for the presence of gross lesions of osteochondrosis and graded on a 5 point scale. (5-point scale: 1=no gross abnormalities; 2=minor imperfections in articular conformation or articular reddening present but no cartilage erosions; 3=cartilage intact but surface irregularities of the cartilage are present; 4=fissuring or erosion of articular cartilage is obvious; 5=full thickness cartilage lesions or cartilage flaps, osteochondritis dissecans obviously present).
The proximal femur (femoral head) and articular surfaces and growth plates associated with the stifle, hock, shoulder, elbow and carpus were sectioned with a band saw and approx. 0.5 to 1.0 cm sections fixed in formalin. […]
Mean joint lesion scores, growth rate and soundness scores by treatment and by factors boron and ascorbate were compared using an analysis of variance and t-test as appropriate. Soundness scores were dichotomised into binary categorical variables for lameness (soundness score>2) and for absence of defects (soundness<2), and the binary variables analysed by chi-square and logistic regression.
Tissue specimens stained with H&E were examined microscopically for the presence of lesions of osteochondrosis. […] Each tissue section was scored by a treatment-blind board-certified pathologist. […]

[5] = system: turkeys; assay: Turkey Study 3: growth, lameness scoring, femur breaking force, cartilage indenter test; assay type: in vivo; details: for leg weakness scores (mean): 5 point scale, control 3.0; for growth response (bird weight) / growth rates: groups with boron versus groups without boron
Excerpt: 250 turkeys were selected at random at week 11 and divided into 5 treatment groups: 1) control, 2) ascorbate only “(VC”), 3) boron only (“B”), 4), boron and ascorbate (“B+C”), and 5) ½ rate boron and full rate ascorbate (“LoB+C”). Full rates of both boron and ascorbate were as described for study 1. At 17 weeks, all birds were weighed, scored for lameness/mobility/gait abnormality using the five point scale used in study 1, and sacrificed. The femur was dissected from each leg of each bird and subjected to an ultimate breaking force analysis. Cartilage at the femoral distal condyle was subjected to an indenter test.
For the lameness/mobility/gait abnormality scoring, three graders were used. Two of the graders were “blind” graders unaware of each turkey's grouping. The third grader was a “biased” grader aware of each turkey's grouping. Partial grading on the 5 point scale described above was allowed. FIG. 11 presents the cross-tabulation of the graders' results.

[6] = system: crossbred pigs; assay: 28-day feeding trial: phosphorus digestibility and excretion, feed conversion; assay type: in vivo, pig; details: 50 ppm Added B; 28 days; N 12 pens
Experimental: Pigs were randomly allocated to 24 pens of 6 pigs per pen in a thermoneutral controlled environment barn with steel grid flooring. Each pen was equipped with a single-hole feeder. Water was available free-choice from a nipple drinker. […] Feces were collected on the last 3 days of the study from each pen and a pooled aliquot was dried and submitted for chemical analysis. Yttrium oxide was added to the diet at 0.05% and served as a marker for phosphorus digestibility. Pig growth and feed consumption was measured at the end of the study with the pen as the experimental unit. Data was analyzed for effects of boron and calcium by univariate and multivariate analysis of variance and t-tests.

[7] = system: pigs of about 100 kg body weight; assay: 3-NPB study in pigs with or without supplemental boron
Experimental: The pigs were evaluated for lameness daily and euthanatized on day 13 and the joints and other organs were examined.

[8] = boron supplementation 50 ppm, 3-NPB none

`OB(O)O` [boric acid] was tested, and the “birth to weaning mortality among a group of 95 piglets” value [1] was 2 piglets.
With `[B]` [Boron] the “sGAG concentration (dry matter basis) in the cartilage” value [2] was 11050 ng/g, the “litter size at birth” value [3] was “no effects” and the piglet birth weight [3] was “no effects”. The “TBlue staining intensity (semi-quantitative measure of sGAG content of cartilage)” value ([4]; boron supplemented group vs unsupplemented pigs) was “consistently higher”, the “joint condition vs basal diet with no supplemental boron (FIG. 1)” value ([4]; growing swine supplemented with boron) was “healthier joints” and the “Growth plate lesions associated with widening, found in % of tissues” value ([4]; pigs receiving 25 ppm boron, microscopic sections of articular cartilage and growth plate) was 19%. For the same molecule, the “Articular cartilage lesions (necrosis, hemorrhage, infarction, or streaks), found in % of tissues” value ([4]; pigs receiving 25 ppm supplemental B, microscopic sections) was 4%, the “occurrence of OC in pigs” value ([4]; supplemental boron at 25 ppm to 50 ppm, FIGS. 1, 3 and 4) was “significant reduction” and the “leg weakness scores (mean)” value [5] was 2.3. For the same molecule, the “improvement of bone strength as compared with the control” value ([5]; boron alone, 3-point bending test of the femur) was 7.8%, the “effect on femur break force (main effects analysis, FIG. 26)” value ([5]; week 11 to 17) was “large effect” and the “growth response (bird weight) / growth rates” value ([5]; week 11 to 17) was “improved”. For the same molecule, the “growth response (bird weight) / growth rates” value ([5]; week 11 to 17, listed as B) was “significant”, the “Feed Conversion Ratio (feed/gain)” value [6] was 2.32 and the “Clinical Lameness Score: Normal (count of pigs)” value [7, 8] was 5. For the same molecule, the “Clinical Lameness Score: Visible Lameness (count of pigs)” value [7, 8] was 0 and the “prevalence and severity of osteochondrosis lesions (shoulder, stifle, hock and elbow joints)” value ([7]; supplemental boron and no 3-NPB) was “lowest prevalence of lesions and the lowest severity”.
In the case of `O=C1O[C@H]([C@@H](O)CO)C(O)=C1O` [ascorbate, ascorbic acid, reference compound], the “leg weakness scores (mean)” value [5] is reported as “did not significantly improve”, the “bone strength as measured by 3-point bending test” value ([5]; administered in drinking water) is reported as “slightly improved bone strength” and the “cartilage strength by indenter test at the femoral distal condyle (FIG. 27)” value ([5]; week 11 to 17) is reported as “statistically significant effect; also recorded: improved cartilage strength”. The “effect on femur break force (main effects analysis, FIG. 26)” value ([5]; week 11 to 17) was “lesser effect”.
